The record followed here is ChEMBL document CHEMBL1133288, “Synthesis and antiviral evaluation of nucleic acid-based (NAB) libraries” (Bioorg Med Chem Lett, 2000).

The assay deals with Vero. The assay can be described thus: Compound was evaluated for inhibition of HSV-1 induced plaques in vero cells (African green monkey kidney cells). Format: functional, cell-based. The settings on record: Chlorocebus sabaeus.

Take `Nc1nc2c(ncn2COCCO)c(=O)[nH]1` [ACYCLOVIR]: the EC50 – broadly, the midpoint of the concentration-response curve – amounted to 6 µM.
